We go through four compounds from patent US20150010474A1, “Compounds And Methods For Selective Imaging And/Or Ablation” (Auckland Uniservices Limited, priority 2011, published 2015).

For data set [1], the system named is HCT-116 cells stably over-expressing cytochrome P450 reductase (CYPOR). The data set is described as follows: Flow cytometry of metabolism and binding (EF5 antibody). The following applies: 2 h. In kind it is cell-based, human. On the procedure:
FIG. 4 illustrates the results of a second independent flow cytometry analysis of compound 15 and 93 metabolism and binding in wild-type HCT-116 cells, HCT-116 cells stably over-expressing cytochrome P450 reductase (CYPOR), a human one-electron reductase known to metabolise nitroheterocyclic and nitroaromatic compounds, or HCT-116 cells stably expressing the bacterial nitroreductase E. coli NfsA. 1×10^6HCT-116 cells were seeded in 6 well plates underaerobic conditions (21% O2, 5% CO2). After 2 h incubation, drug free control (wild-type HCT-116, foreground), 20 μM (wild-type HCT-116, second plot), 100 μM (wild-type HCT-116, third plot), 20 μM (HCT-116-CYPOR, forth plot), 100 μM (HCT-116-CYPOR, fifth plot) or 20 μM (HCT-116-NfsA, sixth plot) of compound 15 or 93 was added. After 2 h incubation cells were harvested and fixed with paraformaldehyde before being incubated overnight with 100 μl of 75 μg/ml EF5 CY5 conjugated antibody. Samples were then analysed on a Becton Dickinson FACscan flow cytometer.
FIG. 5 illustrates the results of flow cytometry analysis of HCT-116 cells stably over-expressing cytochrome P450 reductase (CYPOR), a human one-electron reductase known to metabolise nitroheterocyclic and nitroaromatic compounds. 1×10^6HCT-116-CYPOR cells were seeded in 6 well plates in aerobic, anoxic and 0.2% oxygen conditions designed to replicate the lower limit of pathological hypoxia observed in human tumours. After 2 h incubation, drug free control (foreground), 20 μM (middle) or 100 μM (background) of compound 15 or 67 was added. After 2 h incubation cells were harvested and fixed with paraformaldehyde before being incubated overnight with 100 μl of 75 μg/ml EF5 CY5 conjugated antibody. Samples were then analysed on a Becton Dickinson FAC scan flow cytometer.
FIG. 6 illustrates the results of flow cytometry analysis of compound 15 and 93 metabolism and binding in wild-type HCT-116 cells and HCT-116 cells stably over-expressing cytochrome P450 reductase (CYPOR), a human one-electron reductase known to metabolise nitroheterocyclic and nitroaromatic compounds. 1×10^6 HCT-116 cells were seeded in 6 well plates underanoxic conditions. After 2 h incubation, drug free control (wild-type HCT-116, foreground), 20 μM (wild-type HCT-116, second plot), 100 μM (wild-type HCT-116, third plot), 20 μM (HCT-116-CYPOR, forth plot) or 100 μM (HCT-116-CYPOR, fifth plot) of compound 15 or 93 was added. After 2 h incubation cells were harvested and fixed with paraformaldehyde before being incubated overnight with 100 μl of 75 μg/ml EF5 CY5 conjugated antibody. Samples were then analysed on a Becton Dickinson FACscan flow cytometer.

Data set [2] has as its system HCT116 wild type (WT) cancer cells. The data set is described as follows: Inhibition of cell proliferation, low cell density IC50 assay. In kind it is cell-based. The following applies: Homo sapiens, HCT-116; 4 hour drug exposure, washing and regrowth for 5 days. On the procedure: (§1) IC50 values were determined as the concentration of prodrug required to inhibit cell growth by 50% of untreated controls following 4 hour drug exposure, with washing and regrowth for 5 days. WT:NfsA ratios were determined as the WT IC50/NfsA IC50.

The conditions of data set [3]: cited from earlier work.
For data set [4], the system named is HCT116 cells overexpressing the nitroreductase NfsA from E. coli. In words: Inhibition of cell proliferation, low cell density IC50 assay. It counts as cell-based, human. The conditions noted are these: for IC50: Homo sapiens, HCT-116, 4 hour drug exposure, washing and regrowth for 5 days; for WT:NfsA: WT IC50/NfsA IC50. On the procedure:
as §1

For data set [5], the system named is nfsA expressing HCT116 cells. The following applies: 0.7 mM-hr cold EF5; cited from earlier work.
Data set [6] has as its system NTR over-expressing E. coli SOS-R2. In words: Growth Inhibition assay in 58-membered NTR over-expression library. It counts as cell-based, Escherichia coli. The conditions noted are these: 4 h incubation.
In another data set the target is T1, NfsB (E.c) (Escherichia coli, UniProt P38489).
T1 construct: made in house
T1 sequence (P38489 whole entry): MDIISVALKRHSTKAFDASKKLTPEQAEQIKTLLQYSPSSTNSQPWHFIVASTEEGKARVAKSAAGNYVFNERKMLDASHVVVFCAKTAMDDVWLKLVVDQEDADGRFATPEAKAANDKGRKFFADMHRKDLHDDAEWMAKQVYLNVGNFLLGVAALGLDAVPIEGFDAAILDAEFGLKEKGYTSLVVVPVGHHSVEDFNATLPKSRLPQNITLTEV
In words: Initial rate of metabolism by purified recombinant bacterial nitroreductase (NADPH consumption, UV/Vis). In kind it is biochemical. The conditions noted are these: compound 500 μM, NADPH 200 μM, 10 mM Tris-Cl pH 7.0; μmol NADPH consumed per mg enzyme per minute. On the procedure:
(§2) The relative initial rates of reductive metabolism of the nitro moiety of test compounds by bacterial nitroreductase's can be measured experimentally by incubating the test compound at near-saturating concentration (determined empirically) with the purified recombinant bacterial nitroreductase enzymes in the presence of NADPH co-factor. UV/Vis spectroscopy is used to measure consumption of the co-factor, indicating metabolism of the test compound by the nitroreductase.
(§3) Compounds 67, 93 and 97 (500 μM) were added to NADPH (200 μM) in 10 mM Tris-Cl pH 7.0. Reactions were initiated by enzyme addition (between 5 and 20 μg per reaction). Rates represent μmol of NADPH consumed per mg enzyme added per minute.

Another data set deals with T2, YcnD (B.s) (Bacillus subtilis, UniProt P94424).
T2 construct: made in house
T2 sequence (P94424 whole entry): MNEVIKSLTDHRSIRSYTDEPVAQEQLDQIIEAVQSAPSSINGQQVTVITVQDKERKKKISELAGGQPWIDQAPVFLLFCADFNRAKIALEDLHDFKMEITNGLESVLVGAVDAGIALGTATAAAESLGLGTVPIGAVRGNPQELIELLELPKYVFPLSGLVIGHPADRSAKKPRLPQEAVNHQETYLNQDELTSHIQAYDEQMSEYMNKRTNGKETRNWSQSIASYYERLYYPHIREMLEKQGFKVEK
The data set is described as above. The following applies: compound 500 μM, NADPH 200 μM, 10 mM Tris-Cl pH 7.0; μmol NADPH consumed per mg enzyme per minute. It counts as biochemical. On the procedure: as §2, §3

The target of a further data set is T3, NfsA (E.c) (Escherichia coli, UniProt P17117).
T3 construct: made in house
T3 sequence (P17117 whole entry): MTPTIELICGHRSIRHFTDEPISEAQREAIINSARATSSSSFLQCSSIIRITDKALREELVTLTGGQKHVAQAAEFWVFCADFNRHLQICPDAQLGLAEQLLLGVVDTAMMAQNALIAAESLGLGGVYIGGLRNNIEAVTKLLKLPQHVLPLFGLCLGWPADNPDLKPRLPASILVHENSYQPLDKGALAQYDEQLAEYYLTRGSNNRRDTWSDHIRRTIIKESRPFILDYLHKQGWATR
Described as above. It counts as biochemical. The conditions noted are these: compound 500 μM, NADPH 200 μM, 10 mM Tris-Cl pH 7.0; μmol NADPH consumed per mg enzyme per minute. On the procedure: as §2, §3

In the next data set the target is T4, NfrA (B.s) (Bacillus subtilis, UniProt P39605).
T4 construct: made in house
T4 sequence (P39605 whole entry): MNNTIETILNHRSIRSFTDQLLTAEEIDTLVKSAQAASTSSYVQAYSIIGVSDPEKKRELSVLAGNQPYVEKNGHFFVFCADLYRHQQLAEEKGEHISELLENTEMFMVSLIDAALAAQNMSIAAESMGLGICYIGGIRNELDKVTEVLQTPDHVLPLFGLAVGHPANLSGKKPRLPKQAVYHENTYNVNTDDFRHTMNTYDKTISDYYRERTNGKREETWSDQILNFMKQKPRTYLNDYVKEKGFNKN
Described as above. It counts as biochemical. The following applies: compound 500 μM, NADPH 200 μM, 10 mM Tris-Cl pH 7.0; μmol NADPH consumed per mg enzyme per minute. On the procedure:
as §2, §3

For data set [7], the system named is bacterial nitroreductase over-expressing E. coli strains. The data set is described as follows: IC50 (turbidity) in selected NTR over-expressing library strains. It counts as cell-based, Escherichia coli. The conditions noted are these: 4 h post-challenge, serial dilution. On the procedure: FIG. 2.3 illustrates the IC50 of compound 67 for selected NTR library strains (i.e. the concentration of compound 67 that yielded only 50% turbidity relative to an unchallenged control 4 h post-challenge, in replicate cultures across a serial dilution of compound 67). The strains selected were all those observed to have SOS activity above the empty plasmid control (“Empty”) in response to challenge with compound 67 as illustrated in FIG. 2(B), plus NfsB (E.c) as a negative control. For the IC50 assays, 100 μl of overnight cultures were used to inoculate 2 ml M63 minimal medium supplemented with 100 μg·ml^−1 ampicillin and 50 μM IPTG and incubated at 30° C., 200 rpm for 3.5 h. 40 μL aliquots from each culture were then added to individual wells of a sterile 384 well plate, each already containing 40 μl of ampicillin and IPTG-supplemented M63 medium and a dilution series of compound 67 as indicated on the X-axis of panel A. A. Raw growth curves. Each NTR over-expression strain was tested at least in duplicate (independent replicates), with the exception of NfsB (E.c), which was only measured once. Culture turbidity was monitored by optical density at 600 nm 4 h post-challenge. B. IC50 values calculated by comparison of the challenged cells with the unchallenged control for each strain, after subtracting the initial absorbance values (t=0 h), using SigmaPlot 10.0 (Systat Software Inc., Richmond, Calif.). Errors are 1 standard error of the mean (SEM).
FIG. 2.4 illustrates the IC50 of compound 93 for selected NTR library strains. […] B. IC50 values calculated by comparison of the challenged cells with the unchallenged control for each strain, after subtracting the initial absorbance values (t=0 h), using SigmaPlot 10.0 (Systat Software Inc., Richmond, Calif.). […]
FIG. 2.5 illustrates the IC50 of compound 97 for selected NTR library strains. […] B. IC50 values calculated by comparison of the challenged cells with the unchallenged control for each strain, after subtracting the initial absorbance values (t=0 h), using SigmaPlot 10.0 (Systat Software Inc., Richmond, Calif.). […]

Data set [8] relates to human solid tumour xenograft NCI-H1299 (WT). In words: Hypoxia-dependent binding by ex vivo flow cytometry with pimonidazole co-staining. In kind it is in vivo, NIH-III nude mice. The following applies: 60 mg/kg i.p.; tumours excised after 120 minutes, single cell suspension. On the procedure:
FIG. 11 illustrates the absence of hypoxic-dependent binding of compound 67 and compound 93 by flow cytometry in the human solid tumour xenograft NCI-H1299, with reference to hypoxia staining by compound 15 and pimonidazole (Hypoxyprobe™) as internal standards (positive controls). NCI-H1299 WT tumours were inoculated subcutaneously onto the flank of NIH-III nude mice. When the mixed tumours reached approximately 800 mm^3, mice were dosed i.p. with 60 mg/kg of pimonidazole, and 60 minutes later dosed with either 60 mg/kg of compound 15, or 60 mg/kg of compound 67, or 60 mg/kg of compound 93. After 120 minutes the tumours were excised and enzyme digested to form a single cell suspension before fixation in ice cold 80% ethanol. Single cell immunodetection of bound adducts of compounds was performed using a monoclonal antibody (Mab1, hybridoma clone 4.3.11.3) conjugated to Alexa-488 (Ex/Em 499/519; green) for the detection of pimonidazole adducts, and monoclonal antibody ELK3-51 directly conjugated to the fluorophore CY5 (Ex/Em 650/670 nm; red) for detection of adducts formed by compound 15 or compound 67 or compound 93. The ex-vivo tumour cell samples were analysed on a Becton Dickinson FACscan flow cytometer using FACS Diva software. Integrated fluorescence measurements were recorded for 10,000 single non-debris events. Fluorescence emission was monitored at 530 nm±20 and 670-700 nm for detection of Alexa-488 and CY5 conjugated monoclonal antibodies, respectively.
(In general: In flow cytometry, cells or beads pass a laser one at a time.)

For orientation: IC50 means the point on the concentration scale where inhibition reaches its midpoint. For `O=C(Cn1ccnc1[N+](=O)[O-])NCC(F)(F)C(F)(F)F` [Compound 15, 2-(2-nitro-1H-imidazol-1-yl)-N-(2,2,3,3,3-pentafluoropropyl)acetamide], the “Metabolism and binding by FACS, HCT-116-CYPOR cells (FIG. 4)” value in [1] (20 μM and 100 μM, aerobic conditions) is “minimal metabolism and binding”. Further, the “Metabolism and binding by FACS, HCT-116-CYPOR cells, anoxia (FIG. 6)” value in data set [1] (20 μM and 100 μM, anoxic conditions) is “significant dose-dependent and reductase dependent increases in metabolism and binding”. Besides, in data set [1] (20 μM or 100 μM, 0.2% oxygen), the “Metabolism and binding by FACS, HCT-116-CYPOR cells, 0.2% oxygen (FIG. 5)” value was “Significant dose-dependent increases in metabolism”. Besides, the “Metabolism and binding by FACS, HCT-116-CYPOR cells, aerobic (FIG. 5)” value in data set [1] (20 μM or 100 μM, aerobic) is “negligible metabolism and binding”. For the same compound, in data set [1] (20 μM or 100 μM, anoxia), the “Metabolism and binding by FACS, HCT-116-CYPOR cells, anoxia (FIG. 5)” value is “Significant dose-dependent increases in metabolism”. The IC50 in data set [2] is 2270 µM. Besides, the “Concentration-time achieved in human plasma” value in [3] (cold EF5 9 mg/kg) is recorded as 0.89 mM-hr. Also, the “Plasma AUC” value in data set [3] (dose of 21 mg/kg injected) was 2 mM-hr. In data set [3] (dose of 21 mg/kg), the “Tolerability of injected dose” value is “safely injected without any toxicities”. In data set [4], inhibition was half-maximal at 1 µM (IC50) and the “WT:NfsA” value is recorded as 2270. Moreover, the “Loss of viability for nfsA expressing HCT116 cells” value in data set [5] is reported as 90%.
`O=[N+]([O-])c1nccn1Cc1cn(C(CO)CF)nn1` (stereo not drawn) [Compound 19, reference compound]: the concentration for half-maximal inhibition (IC50) in data set [2] is over 12500 µM; in data set [4], 16 µM. For the same compound, the “WT:NfsA” value in data set [4] is on record as over 781.
The melting point is the temperature, or range, at which the solid turns liquid. As for `O=[N+]([O-])c1cn(Cc2cn(C(CO)CF)nn2)cn1` (stereo not drawn) [Compound 97, 3-fluoro-2-(4-((4-nitro-1H-imidazol-1-yl)methyl)-1H-1,2,3-triazol-1-yl)propan-1-ol], the melting point fell in the range of 126 to 129 °C. Moreover, the “Reductive metabolism at the nitro moiety by NTR library members (NfsA and NfsB families)” value in [6] (400 μM compound 67, 130 μM compound 93, 800 μM compound 97) was “reductively metabolised at the nitro moiety by the majority of the NfsA and NfsB families tested”. Moreover, the “Metabolism by members of the NemA nitroreductase family” value in [6] (800 μM compound 97) was “Modest metabolism”. The IC50 in data set [2] was over 12500 µM. Further, the “Rate of metabolism by NfsB (E.c)” value on NfsB (E.c) amounted to 1.4 µmol/min/mg. Besides, the “Rate of metabolism by YcnD (B.s)” value at YcnD (B.s) was found to be 6.2 µmol/min/mg. In addition, the “Rate of metabolism by NfsA (E.c)” value on NfsA (E.c) stood at 4.3 µmol/min/mg. Besides, the “Rate of metabolism by NfrA (B.s)” value at NfrA (B.s) is 3.9 µmol/min/mg. In addition, the “Inhibition of bacterial cell growth in NTR over-expressing strains compared to controls” value in data set [7] is given as “Inhibition of bacterial cell growth was selectively observed”. Also, in [4], half-maximal inhibition (IC50) was put at 178 µM and the “WT:NfsA” value is on record as over 70.
Consider `O=[N+]([O-])c1nccn1CC(O)CN1CCCCC1` (stereo not drawn) [pimonidazole, reference compound], for which, in data set [8], the “Hypoxia-dependent binding in NCI-H1299 WT tumours, flow cytometry (FIG. 11)” value was “hypoxic cells that are detected by pimonidazole adduct retention”.
